The structures appear in SMILES notation. Values joined by “and” are separate entries in the source; they are usually repeats but may differ in a detail not shown here. Identical values can stand only once.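 1) Cells in 96-well plates. 2) Compound, 48 h, 5 concentrations. 3) Linear interpolation between surrounding doses. 4) Unreached endpoint = highest concentration. GI50: concentration for 50% inhibition of growth. TGI: concentration producing complete growth inhibition.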 Bounds are passed on as bounds.

Broadly, the TGI is the concentration at which net growth stops. Lower therefore signals more potent growth arrest. The GI50 is the concentration at which growth is held to half of that of the control.

Test in all cases: DTP human tumour cell line panel, 48 h
For test [1], the system named is UACC-257 melanoma.
In test [2] the test system is HOP-92 NSCLC.
Test [3] has as its system K-562 leukemia.
The subject of test [4] is HCT-15 colon.
In test [5] the test system is NCI/ADR-RES ovarian.
The subject of test [6] is NCI-H460 lung.
Test [7] has as its system PC-3 prostate.
Test [8] concerns HOP-62 NSCLC.
Test [9] deals with SK-OV-3 ovarian.
For test [10], the system named is SNB-19 CNS.

Consider `O=C(O)c1ccc([N+](=O)[O-])c(P(=O)(O)O)c1`, for which the TGI in test [1], in [2], in test [3], in test [4], in [5] and in test [6] was greater than 100 µM in each case. Also, the TGI in [7], in test [8], in test [9] and in [10] was greater than 100 µM each time.

As for `CN(C)c1cc2c(Nc3ccc4nc(Cc5ccccc5)[nH]c4c3)ncnc2cn1`, the GI50 was greater than 15.3 µM in test [1]; greater than 25 µM in test [2]; greater than 19.8 µM in test [3]; greater than 16.6 µM in test [4]; greater than 25 µM in test [5]; 13.1 µM in test [6]. In addition, the GI50 in [7] is greater than 25 µM; in test [8], greater than 15.6 µM; in [9], 1.85 µM; in test [10] it was greater than 25 µM. The TGI in test [1], in test [2], in [3], in [4], in [5] and in test [6] was greater than 25 µM in each case. Besides, the TGI in [7], in test [8], in [9] and in test [10] was greater than 25 µM in each case.

For `CCS(=O)(=O)c1ccc(OC)c(Nc2ncc(-c3cccc(-c4ccccc4F)c3)o2)c1`, the GI50 was greater than 25 µM in test [1]; 3.16 µM in test [2]; 5.75 µM in [3]; 16.8 µM in [4]; 15.4 µM in test [5]; greater than 25 µM in test [6]. Moreover, the GI50 is 15.5 µM in test [7], greater than 19.9 µM in test [8], 5.1 µM in [9] and greater than 17.2 µM in [10]. Also, the TGI in test [1] was greater than 25 µM; in test [2], 20.7 µM; in test [3], greater than 25 µM; in test [4] it was greater than 25 µM; in [5], greater than 25 µM; in test [6], greater than 25 µM. In addition, the TGI in [7] is greater than 25 µM; in [8] it was greater than 25 µM; in test [9], 14.3 µM; in test [10], greater than 25 µM.

In the case of `CCN(CC)CC(O)CNc1ccc(NCC(O)CCl)c2c1C(=O)c1ccccc1C2=O` (centres undefined), the TGI was found to be 16 µM in [1]; 18.2 µM in test [2]; 6.45 µM in test [3]; 19.9 µM in test [4]; 17.3 µM in test [5]; 12.5 µM in test [6]. Also, the TGI in [7] worked out at 19.8 µM; in test [8] it was 25.6 µM; in [9], 39.1 µM; in test [10] it was 25.9 µM.

Turning to `COc1cc(C2=Nc3c/c(=C\c4c(O)[nH]c5ccc(Cl)cc45)ccc3=N2)cc(OC)c1OC`, the GI50 was 1.96 µM in test [1]; 0.444 µM in [2]; 4.21 µM in test [3]; 3.27 µM in test [4]; 5.96 µM in test [5]; 2.7 µM in test [6]. In addition, the GI50 was 2.94 µM in test [7], 1.95 µM in test [8], 16.2 µM in test [9] and 4.55 µM in test [10]. The TGI in test [1] was 4.77 µM; in test [2] it was 6.35 µM; in test [3], 25.5 µM; in [4], 11.6 µM; in test [5], 54.7 µM; in [6], 8.65 µM. Moreover, the TGI in test [7] amounted to 14.3 µM; in test [8], 4.09 µM; in [9], 32.5 µM; in test [10], 13.5 µM.

In the case of `CCN1CCN(CCNc2nccc(-c3c(-c4cccc(O)c4)nc4sccn34)n2)S1(=O)=O`, the GI50 in test [1] is 0.31 µM and 0.215 µM; in test [2], 6.2 µM and 0.671 µM; in [3], 11.9 µM and 11.4 µM; in test [4] it was 11.7 µM and 8.63 µM; in test [5] it was 23.3 µM and 26.5 µM; in test [6] it was 11.8 µM and 5.86 µM. In addition, the GI50 in [7] was 17.6 µM and 20.1 µM; in test [8] it was > 32.5 µM and 26.4 µM; in test [9] it was 7.93 µM and 3.95 µM; in [10], > 32.5 µM and 71.5 µM. Besides, the TGI in [1] was 32.5 µM and 9.03 µM; in test [2] it was 32.5 µM and 69.9 µM; in test [3], 32.5 µM and > 100 µM; in test [4], 32.5 µM and > 100 µM; in test [5], 32.5 µM and 86.1 µM; in [6], 32.5 µM and 78.3 µM. The TGI in test [7] was 32.5 µM and > 100 µM; in [8], greater than 100 µM; in test [9] it was 32.5 µM and 22.8 µM; in test [10] it was greater than 100 µM.

Take `COc1ccccc1/C=C1\CCC(CN(C)C)C1=O` (centres undefined): the total growth inhibition concentration (TGI) in test [1] came to 25 µM; in [2], 15.9 µM; in test [3], 11.3 µM; in test [4], 7.85 µM; in test [5], 90.3 µM; in test [6] it was 44.5 µM. The TGI amounted to 18 µM in [7], 36.4 µM in test [8], 33.7 µM in [9] and 26.7 µM in [10].

Regarding `CC(C)[C@@H]1NC(=O)[C@]2(C)CSC(=N2)c2csc(n2)CNC(=O)C[C@@H](/C=C/CCS)OC1=O`, the GI50 in test [1] was 0.0537 µM; in test [2], 0.137 µM; in test [3], 0.273 µM; in [4] it was 5.12 µM; in [5], 2.67 µM; in test [6] it was 0.0332 µM. In addition, the GI50 in test [7] is 0.0577 µM; in [8], 0.0453 µM; in [9] it was 0.0204 µM; in test [10], 0.168 µM. Moreover, the TGI in test [1] was 2.15 µM; in [2], 0.677 µM; in test [3], greater than 100 µM; in test [4], greater than 100 µM; in test [5], greater than 100 µM; in test [6], greater than 100 µM. The TGI in test [7] is greater than 100 µM; in test [8], greater than 29.1 µM; in test [9], 0.228 µM; in test [10] it was greater than 44.3 µM.

Take `S=C(Nc1ccc(-c2nc3ccccc3s2)cc1)Nc1ccccn1`: the GI50 in test [1] is 31.8 µM; in test [2] it was 16.7 µM; in [3] it was 27.6 µM; in [4], 27.4 µM; in test [5], 24.6 µM; in test [6], 41.2 µM. The GI50 in test [7] is 23.6 µM; in test [8] it was 44.4 µM; in test [9], 59.7 µM; in test [10] it was 36.1 µM. For the same compound, the TGI in [1] was greater than 72 µM; in [2], 64.1 µM; in test [3] it was greater than 100 µM; in [4] it was greater than 71.6 µM; in test [5] it was 66.6 µM; in test [6], greater than 100 µM. Moreover, the TGI in test [7] is greater than 71.7 µM; in test [8], greater than 100 µM; in test [9], greater than 100 µM; in test [10] it was greater than 100 µM.

As to `COC(=O)C1=C2C3=C(C(=O)c4ccccc4C3=O)N(Cc3ccccc3)C2(OC(C)=O)C=CC1=O` (centres undefined), the GI50 is 29.6 µM in [1]; 0.85 µM in test [2]; 4.69 µM in [3]; 14.1 µM in test [4]; 8.56 µM in test [5]; 5.93 µM in [6]. In addition, the GI50 is 2.36 µM in test [7], 2.94 µM in [8], 27.6 µM in test [9] and 31.3 µM in test [10]. Besides, the TGI in [1] is greater than 100 µM; in test [2] it was 19.7 µM; in [3] it was greater than 100 µM; in test [4] it was 53.9 µM; in [5], greater than 100 µM; in test [6], greater than 100 µM. The TGI in test [7] is 19.2 µM; in test [8], 13.7 µM; in test [9] it was greater than 100 µM; in [10], greater than 100 µM.

Regarding `Nc1ccccc1C#Cc1ccccc1C#Cc1ccccc1N`, the GI50 is 30.1 µM in [1]; 3.62 µM in test [2]; 2.01 µM in test [3]; 3.42 µM in [4]; 13 µM in test [5]; 5.89 µM in test [6]. Moreover, the GI50 in test [7] was 5.31 µM; in test [8], 11 µM; in test [9] it was 15.1 µM; in [10] it was 23.3 µM. Also, the TGI in test [1] is greater than 100 µM; in [2], 15.6 µM; in test [3] it was 12.8 µM; in test [4], 16.8 µM; in test [5], 73.3 µM; in test [6], greater than 100 µM. The TGI in test [7] is 23.3 µM; in [8], 26.7 µM; in test [9] it was 35.5 µM; in test [10] it was 65.8 µM.

For the compound `O=C1OCC2=C1C(c1cccc([N+](=O)[O-])c1)c1cc3c(cc1N2CCO)CCC3` (centres undefined), the GI50 was 11.5 µM in [1]; 2.66 µM in test [2]; 0.0666 µM in [3]; 0.121 µM in test [4]; 0.146 µM in test [5]; 0.172 µM in test [6]. Besides, the GI50 in [7] was 0.145 µM; in test [8], 0.199 µM; in test [9], 0.226 µM; in test [10], 0.2 µM. Besides, the TGI in test [1] was greater than 50 µM; in test [2], greater than 50 µM; in test [3], greater than 50 µM; in test [4], greater than 50 µM; in [5], greater than 11.3 µM; in test [6], 14.6 µM. The TGI in [7], in test [8], in test [9] and in test [10] was greater than 50 µM each time.

For `NC(Cc1cc(Br)c(O)c(Br)c1)C(=O)O` (centres undefined), the TGI in test [1], in test [2], in [3], in test [4], in [5] and in test [6] was greater than 100 µM throughout. Also, the TGI in test [7], in [8], in [9] and in test [10] was greater than 100 µM in each case.

As to `NC(=O)Cc1ccccc1Oc1nccc(-c2c(-c3ccc(F)cc3)ncn2C2CCNCC2)n1`, the GI50 in test [1], in [2], in test [3], in test [4], in test [5] and in test [6] was greater than 25 µM each time. Besides, the GI50 in test [7], in test [8], in test [9] and in test [10] was greater than 25 µM in each case. Moreover, the TGI in [1], in test [2], in test [3], in test [4], in test [5] and in [6] was greater than 25 µM in each case. For the same compound, the TGI in test [7], in test [8], in test [9] and in [10] was greater than 25 µM throughout.

Take `Cc1nc(NC(=O)COc2cccc(/C=C3\COc4ccccc4C3=O)c2)sc1C`: the GI50 in [1] was 2.88 µM; in test [2], 1.69 µM; in test [3], 3.1 µM; in test [4] it was 2.04 µM; in [5] it was 3.12 µM; in [6] it was 3.19 µM. For the same compound, the GI50 was 1.76 µM in [7], 1.71 µM in test [8], 8.97 µM in [9] and 3.38 µM in [10]. The TGI is 8.13 µM in [1]; 3.83 µM in [2]; greater than 100 µM in test [3]; 5.2 µM in test [4]; 9.79 µM in test [5]; 11.3 µM in test [6]. In addition, the TGI is 4.05 µM in [7], 3.37 µM in test [8], 21.3 µM in test [9] and 13.6 µM in [10].

With `O=C1C(CN(Cc2ccccc2)Cc2ccccc2)CCCC1CN(Cc1ccccc1)Cc1ccccc1` (centres undefined), the GI50 in [1] is 27.9 µM and > 100 µM; in [3], 54.3 µM and > 86.3 µM; in test [4], 14.2 µM and > 100 µM; in [7], > 100 µM and 41.5 µM. Further, the TGI was 49.1 µM and > 100 µM in test [1]; > 52.1 µM and 82.5 µM in test [2]; greater than 100 µM in [3]; 21.3 µM and > 100 µM in [4]; greater than 100 µM in test [5]; greater than 100 µM in [6]. Besides, the TGI in test [7] was greater than 100 µM; in [8] it was greater than 100 µM; in test [9], > 77 µM and 97.5 µM; in test [10], greater than 100 µM.

(Values after PubChem BioAssay (NCI).)
